Assay results as given in US20230151106A1, “OFATUMUMAB FOR TREATING MS WHILE MAINTAINING SERUM IgG” (NOVARTIS AG, priority 2020, published 2023).

Key:
[1] = tested on: IgG levels; test: Metanalysis of Example 1 versus Derfuss et al. (pooled OPERA), IgG levels; assay type: in vivo, human; conditions: in vivo
From the text: In a metanalysis, the results of Example 1 and the results obtained by Derfuss et al. were compared.

[2] = tested on: multiple sclerosis patients; conditions: in vivo; cited from earlier work
[3] = tested on: MS patients; conditions: cited from earlier work
[4] = tested on: CD19+ B-cells; test: CD19+ B-cell depletion in ASCLEPIOS; assay type: in vivo, human
Description: ASCLEPIOS I and II are double-blind, double-dummy, active comparator-controlled, parallel-group, innovative, adaptive design, multicentre trials. Patients were randomised (1:1) to receive either ofatumumab 20 mg sc injections every 4 weeks (after an initial loading regimen of 20 mg sc doses on Days 1, 7 and 14) or teriflunomide 14 mg orally once daily, for up to 30 months. […] Patients aged 18-55 years with an Expanded Disability Status Scale (EDSS) score (according to Kurtzke, Neurology. 1983, Nov; 33(11): 1444-52) of 0-5.5 at screening who experienced ≥1 relapse in the past year or ≥2 relapses in the past 2 years or a positive gadolinium-enhancing (Gd+) MRI scan during the year before randomisation were included.

[5] = tested on: serum IgM; test: Serum IgM levels in ASCLEPIOS I/II (Pool C2); assay type: in vivo, human; conditions: any time post-baseline, FIG. 9
Description: In the present application serum Ig levels can preferably be determined by immunoturbidimetry. Preferably a Roche cobas® Analyzer was used, especially module c of the cobas® analyser.
(§1) Serum samples were preferably kept at 2-8° C. before measurement.
ASCLEPIOS I and II are double-blind, double-dummy, active comparator-controlled, parallel-group, innovative, adaptive design, multicentre trials. Patients were randomised (1:1) to receive either ofatumumab 20 mg sc injections every 4 weeks (after an initial loading regimen of 20 mg sc doses on Days 1, 7 and 14) or teriflunomide 14 mg orally once daily, for up to 30 months.

[6] = tested on: serum IgG; test: Serum IgG levels in ASCLEPIOS I/II (Pool C2)
Description: In the present application serum Ig levels can preferably be determined by immunoturbidimetry. Preferably a Roche cobas® Analyzer was used, especially module c of the cobas® analyser. In a preferred embodiment Ig levels can be determined by using a cobas® c 311 analyzer. It is further preferred that IgG measurements are carried out as described in the cobas® leaflet “IGG-2 Tina-quant IgG Gen. 2”, preferably version 11.0 dated 2016-02 and IgM measurements as described in the leaflet “IGM-2 Tina-quant IgM Gen. 2”, preferably version 13.0 dated 2018-11.
as §1
Patients were randomised (1:1) to receive either ofatumumab 20 mg sc injections every 4 weeks (after an initial loading regimen of 20 mg sc doses on Days 1, 7 and 14) or teriflunomide 14 mg orally once daily, for up to 30 months.
(§2) Serum IgG/IgM levels were monitored at baseline, Week (W) 4, W12 and every 12 weeks, see FIG. 1.

[7] = tested on: multiple sclerosis patients; test: Infections in relation to IgM/IgG levels <LLN vs >=LLN in ofatumumab MS studies
From the text: as §2

[8] = after the last infusion, 51 patients from MS clinical studies
[9] = anytime during post baseline visit
[10] = Ofatumumab N=134, Teriflunomide N=214

ocrelizumab: anti-CD20 monoclonal antibody with a humanized antibody backbone, approved for relapsing and primary progressive MS
effect on IgG levels on the long term [1]: leads to a reduction of IgG levels | approximate mean rate of reduction in serum Ig levels [2]: 3-4 % per year | infection rate, association with IgG, first value [2]: 6.50 /100PY | infection rate, association with IgG, second (vs) value [2]: 2.11 /100PY | infection rate, association with IgM, first value [2]: 3.66 /100PY | infection rate, association with IgM, second (vs) value [2]: 1.88 /100PY | median time for B-cell counts to return to either baseline or LLN [3, 8]: 72 weeks | range of time for B-cell counts to return to either baseline or LLN [3, 8]: 27-175 weeks | effect on total immunoglobulins ([3]; in vivo): decrease in total immunoglobulins | malignancies compared to control groups ([3]; in vivo): increased number of malignancies | patients whose B-cell counts rose to either baseline or LLN ([3]; within 2.5 years after the last infusion): 90%

C/C(O)=C(\C#N)C(=O)Nc1ccc(C(F)(F)F)cc1 [teriflunomide]
patients with CD19+ B-cells below LLN ([4]; Week 1): (2.0) % | patients with CD19+ B-cells below LLN, n/M ([4]; Week 1): 9/443 | patients with CD19+ B-cells below LLN ([4]; Week 2): (1.6) % | patients with CD19+ B-cells below LLN, n/M ([4]; Week 2): 7/437 | patients with CD19+ B-cells below LLN ([4]; Week 4): (3.2) % | patients with CD19+ B-cells below LLN, n/M ([4]; Week 4): 14/444 | patients with CD19+ B-cells below LLN ([4]; Week 12): (3.0) % | patients with CD19+ B-cells below LLN, n/M ([4]; Week 12): 13/439 | patients with CD19+ B-cells below LLN ([4]; Week 24): (2.1) % | patients with CD19+ B-cells below LLN, n/M ([4]; Week 24): 9/419 | patients with CD19+ B-cells below LLN ([4]; Week 36): (1.2) % | patients with CD19+ B-cells below LLN, n/M ([4]; Week 36): 5/408 | patients with CD19+ B-cells below LLN ([4]; Week 48): (1.3) % | patients with CD19+ B-cells below LLN, n/M ([4]; Week 48): 5/394 | patients with CD19+ B-cells below LLN ([4]; Week 60): (2.1) % | patients with CD19+ B-cells below LLN, n/M ([4]; Week 60): 8/382 | patients with CD19+ B-cells below LLN ([4]; Week 72): (1.0) % | patients with CD19+ B-cells below LLN, n/M ([4]; Week 72): 3/304 | patients with CD19+ B-cells below LLN ([4]; Week 84): (2.1) % | patients with CD19+ B-cells below LLN, n/M ([4]; Week 84): 4/195 | patients with CD19+ B-cells below LLN ([4]; Week 96): (0.8) % | patients with CD19+ B-cells below LLN, n/M ([4]; Week 96): 1/121 | patients with CD19+ B-cells below LLN ([4]; Week 108): (4.5) % | patients with CD19+ B-cells below LLN, n/M ([4]; Week 108): 3/67 | patients with CD19+ B-cells below LLN, n/M ([4]; Week 120): 0/16 | patients with B-cells below LLN ([4]; throughout the study Treatment epoch): up to 4.5% | patients with IgM levels on or above the LLN [5]: > 90% | change in mean serum IgG value from baseline ([6]; Week 96): -0.421 g/L | decrease in mean IgG value from baseline ([6]; Week 96): 4.1% | patients with IgG levels on or above the LLN ([6]; any time post-baseline, FIG. 9): > 77% | patients with IgG below LLN, n/N [6, 9]: 214/934 | proportion of patients with IgG below LLN [6, 9]: 22.9% | Infections observed after the first drop of IgG<LLN [7, 10]: 36.4% | Infections observed after the first drop of IgG<LLN, number of patients [7, 10]: 78 | patients who reported an infection post study drug discontinuation ([7]; among patients who discontinued treatment for Ig decline): 2 of 7
